Laboratory results from publication PMC9602571, “Discovery of a Dual SENP1 and SENP2 Inhibitor” (International Journal of Molecular Sciences, 2022).
Read-outs that look alike come from different tables or passages of the source.

What was measured:
[1] = biological target: T1, SENP1 (Homo sapiens, UniProt Q9P0U3); experiment: Mode of inhibition study, SENP1 and SUMO1-AMC kinetic measurement; type: biochemical
T1 construct: Human recombinant, His6-SENP1 Catalytic Domain; His6 (N); purchased Boston Biochem (Bio-Techne AG) E-700
T1 sequence (Q9P0U3 450-613 limits assumed): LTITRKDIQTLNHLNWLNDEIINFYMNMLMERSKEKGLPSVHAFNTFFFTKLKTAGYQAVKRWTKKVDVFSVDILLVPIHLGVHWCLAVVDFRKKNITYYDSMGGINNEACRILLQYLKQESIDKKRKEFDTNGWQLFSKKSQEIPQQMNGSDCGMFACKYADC
Protocol: A mode of inhibition study with 11 was performed by kinetic measurement with SENP1 and SUMO1-AMC employing five different substrate concentrations (Figure 4). The IC50 values […] slightly by lowering the SUMO1-AMC substrate concentration from 1000 nM to 62.5 nM, indicating a slight binding preference to the SUMO1-SENP1 complex (Figure 4A).
IC50 measurements were performed with at least two replications using eight concentrations starting at 200 μM and for the fragments at 500 μM with three-fold dilution. Human recombinant, His6-SENP1 Catalytic Domain (Boston Biochem Cat# E-700, Bio-Techne AG, Zug, Switzerland) was prepared in reaction buffer (50 mM HEPES, 150 mM NaCl, 0.5 mM EDTA, 1 mM DTT, pH 7.5, 0.01% CHAPS). To this solution, a 20 mM or 50 mM inhibitor stock solution in DMSO was added and the mixture was incubated for 15 min at ambient temperature. The substrate SUMO1/2 or 3-AMC (SUMO1-AMC; Boston Biochem Cat# UL-551; SUMO2-AMC; Boston Biochem Cat# UL-758; SUMO3-AMC; Boston Biochem Cat# UL-768; Bio-Techne AG, Zug, Switzerland) was delivered to a 96 well-plate to initiate the reaction. The enzyme activities were monitored (Ex/Em = 355/460 nm) as a time-course measurement of the increase in fluorescence signal from SUMO1/2 or 3-AMC for 60 min at 25 °C. The data were analyzed by taking the slope (signal/time) of the linear portion of measurement. The slope was calculated using Excel and the curve fits were performed using GraphPad Prism7 with a four-parameter least-squares fit. The final reaction conditions contained 0.02 nM SENP1 and 300 nM SUMO1/2 or 3-AMC).

[2] = biological target: T1, SENP1; experiment: SENP1 endopeptidase activity with proSUMO3 (SDS gel); type: biochemical; settings: inhibitor 200 µM, proSUMO3 5 µM, 37 °C, 1 h
Protocol: Measurements were performed using six different inhibitor concentrations starting at 200 μM of 11 with three-fold dilution. Human recombinant, His6-SENP1 Catalytic Domain (Boston Biochem Cat# E-700, Bio-Techne AG, Zug, Switzerland) was prepared in reaction buffer (50 mM HEPES, 150 mM NaCl 0.5 mM EDTA, 1 mM DTT, pH 7.5, 0.01% CHAPS) as 555 nM solution. A 20 mM compound DMSO stock-solution (1.1 µL) was added to the freshly prepared 555 nM enzyme solution (98.9 µL). […] Then, 50 µM proSUMO3 (5 µL) was added to the freshly prepared enzyme inhibitor solution (45 µL) and incubated for 60 min at 37 °C and subsequently the reaction was stopped by adding 4 × Laemmli-Buffer (16.7 µL) and denaturing the protein at 100 °C for 30 min. Those solutions (10 µL) were loaded on a casted 15% sodium dodecyl sulfate polyacrylamide gel and separated on a Mini-PROTEAN Tetra Cell (Bio-Rad, Hercules, CA, USA). After SDS-PAGE gel electrophoresis separation, the gels were stained with staining solution Bio-Safe Coomassie Brilliant Blue G-250 (BioRad) for 60 min. De-staining was performed with 40% (v/v) methanol, 10% (v/v) glacial acetic acid, 50% (v/v) Milli-Q water until protein bands became visible.

[3] = biological target: T1, SENP1; experiment: Fluorogenic SENP1 assay, SUMO2-AMC substrate; type: biochemical; settings: n = 2
Protocol: Human recombinant, His6-SENP1 Catalytic Domain (Boston Biochem Cat# E-700, Bio-Techne AG, Zug, Switzerland) was prepared in reaction buffer (50 mM HEPES, 150 mM NaCl, 0.5 mM EDTA, 1 mM DTT, pH 7.5, 0.01% CHAPS). To this solution, a 20 mM or 50 mM inhibitor stock solution in DMSO was added and the mixture was incubated for 15 min at ambient temperature. […] The data were analyzed by taking the slope (signal/time) of the linear portion of measurement. The slope was calculated using Excel and the curve fits were performed using GraphPad Prism7 with a four-parameter least-squares fit. The final reaction conditions contained 0.02 nM SENP1 and 300 nM SUMO1/2 or 3-AMC).

[4] = biological target: T2, UCHL1 (Homo sapiens, UniProt P09936); experiment: UCHL1 activity assay, Ubiquitin-AMC substrate; type: biochemical; settings: n = 2
T2 construct: purchased SignalChem U22-30H
T2 sequence (P09936 1-223): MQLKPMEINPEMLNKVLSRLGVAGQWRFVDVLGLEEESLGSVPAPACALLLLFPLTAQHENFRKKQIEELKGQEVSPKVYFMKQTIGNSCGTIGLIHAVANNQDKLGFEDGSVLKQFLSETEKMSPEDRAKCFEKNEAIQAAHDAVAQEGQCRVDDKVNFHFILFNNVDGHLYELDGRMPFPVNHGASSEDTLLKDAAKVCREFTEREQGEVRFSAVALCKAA
Protocol: IC50 measurements were conducted at Reaction Biology Corporation, Malvern, PA, USA, with two replications using 10 concentrations starting at 200 μM with three-fold dilution. Curve fits were performed where the enzyme activities at the highest concentration of compounds were less than 65%. UCHL1 II was used as a control inhibitor. The procedure was performed analogous to the fluorogenic SENP2 assay described in 3.3.2. using the UCHL1 enzyme (SignalChem Cat# U22-30H) and Ubiquitin-AMC substrate (Enzo Cat# BML-SE211-0025). The final reaction conditions contained 0.2 nM UCHL1 and 100 nM Ubiquitin-AMC.

- alpha (mixed inhibition model) ([1]; global Michaelis-Menten fit): 0.23
- Ki ([1]; global Michaelis-Menten fit, GraphPad Prism, read-out: KI (mixed inhibition model)): 10.6 µM
- Ki ([1]; global fit, unit inferred, read-out: Ki (Figure 4B)): 10.6 µM
- IC50 ([1]; substrate 62.5 nM, read-out: IC50 at SUMO1-AMC 62.5 nM): 6.65 µM
- IC50 ([1]; substrate 125 nM, read-out: IC50 at SUMO1-AMC 125 nM): 5.82 µM
- IC50 ([1]; substrate 250 nM, read-out: IC50 at SUMO1-AMC 250 nM): 4.72 µM
- IC50 ([1]; substrate 500 nM, read-out: IC50 at SUMO1-AMC 500 nM): 4.04 µM
- IC50 ([1]; substrate 1000 nM, read-out: IC50 at SUMO1-AMC 1000 nM): 3.15 µM
- melting point: 237 °C (dec.)
- inhibition of SENP1 endopeptidase activity (proSUMO3 maturation) [2]: full inhibition
- IC50 [3]: 43 µM
- IC50 [4]: 77 µM
SMILES: O=C(Cn1nnc(-c2ccccc2)n1)N1c2ccccc2NC(=O)C12CCCC2 [Compound 11, 1′-[2-(5-Phenyl-2H-1,2,3,4-tetrazol-2-yl)acetyl]-3′,4′-dihydro-1′H-spiro[cyclopentane-1,2′-quinoxalin]-3′-one]
